Measurements from patent publication US6989375B2, “Enhanced expression of transgenes” (priority 1996, dated 2006).

System: H1299 cells
Assay: β-gal expression by X-gal staining after Ad/CMV/β-gal infection of agent-treated cells
Format: cell-based, human
Details: for Enhancement of β-gal gene expression after treatment with antineoplastic agent: wide range of drug concentrations, 24 h, infected with Ad/CMV/β-gal 48 hours after drug removal
Method: Gene Delivery Protocol: In vitro gene delivery was performed by incubating cells in six-well plates (Falcon Plastics, Lincoln Park, N.J.) for two hours with Adv/CMV/β-gal in appropriate medium supplemented with 2% FCS. The multiplicity of infection (MOI: number of viral particles per target cell) was based on cell counts of untreated wells. Fresh, complete medium with the appropriate concentration of FCS was then added to the wells at the end of the infection period and cells were then incubated for 20 hours at 37° C., 5% CO2. After washing the cells with ice cold PBS, the cells were fixed with ice-cold 1.25% glutaraldehyde and stained with X-gal (5-bromo-4-chloro-3-indolyl-β-d-galactoside; Gibco BRL) as previously described (MacGregor et al., 1987). The transduction efficiency by Adv/CMV/β-gal was determined by the percentage of positive stained cells (blue) for β-galactosidase activity (1000 cells counted per well).
Time Course and Dose Response: To determine the time course of enhancement, H1299 and H460 cells were seeded in 6-well plates (2×10^5 cells/2 mls/well). After an overnight incubation period (37° C., 5% CO2), the initial medium was replaced with freshly prepared media (2 ml) containing 0.062 μg/ml CDDP (Sigma Chemicals, St. Louis, Mo.) (CDDP was prepared fresh by dissolving in distilled water) and the cells were then incubated for 24 hours at 37° C., with 5% CO2. CDDP-treated cells were then washed twice with PBS and subsequently infected with Ad/CMV/β-gal (MOI=1 for H1299 and MOI=5 for H460) on days 0, 1, 2, 3, 4, 5 or 6 following CDDP removal, to determine the time point at which maximal enhancement of expression was occurring. To establish the dose of CDDP needed to produce maximum enhancement, the cells were treated with different concentrations of CDDP (serial, 1:4 dilutions, ranging from 4 μg/ml to 0.0002 μg/ml, 5 ml per 60 mm dish) for 24 hours and subsequently incubated with Ad/CMV/β-gal 48 hours after removal of CDDP. To study if exposure of malignant cells to different classes of antineoplastic agents would lead to a similar elevation of gene expression, H1299 cells were treated with vincristine (Eli Lilly and Co, Indianapolis, Ind.), methotrexate (Lederle Pharmaceuticals, Pearl River, N.Y.), 5-fluorouracil (SoloPak Laboratories, Elk Grove Village, Ill.), epotoside (Bristol Laboratories, Princeton, N.J.) and transplatin (the isomer of CDDP that has no anticancer activity, Sigma Chemical, St. Louis, Mo.) in the similar fashion as CDDP treatment and then infected with Ad/CMV/β-gal 48 hours after removal of drug-containing media. H1299 cells were treated with 2, 4, 8, or 16 Grey (Gy) of ionizing irradiation and then similarly infected 72 hours after irradiation. Untreated cells that were similarly infected, served as controls.

SMILES | Enhancement of β-gal gene expression after treatment with antineoplastic agent | Enhancement of β-gal expression (FIG. 3) (drugs at 0.062 μg/ml or irradiated with 8 Greys, stained 24 hrs after infection)
O=c1[nH]cc(F)c(=O)[nH]1 [5-fluorouracil] | did not result in enhanced gene expression | 
COc1cc([C@@H]2c3cc4c(cc3[C@@H](O[C@@H]3O[C@@H]5CO[C@@H](C)O[C@H]5[C@H](O)[C@H]3O)[C@H]3COC(=O)[C@H]23)OCO4)cc(OC)c1O [VP-16, etoposide] | enhanced gene expression | Enhancement of β-gal expression was observed
CN(Cc1cnc2nc(N)nc(N)c2n1)c1ccc(C(=O)N[C@@H](CCC(=O)O)C(=O)O)cc1 [methotrexate] | did not result in enhanced gene expression | 
N.N.[Cl][Pt+2][Cl] [transplatinum] | did not result in enhanced gene expression | 
CC[C@]1(O)C[C@H]2CN(CCc3c([nH]c4ccccc34)[C@@](C(=O)OC)(c3cc4c(cc3OC)N(C=O)[C@H]3[C@@](O)(C(=O)OC)[C@H](OC(C)=O)[C@]5(CC)C=CCN6CC[C@]43[C@@H]65)C2)C1 [vincristine] | did not result in enhanced gene expression | 
